Assay results published in ChEMBL document CHEMBL1201862, “PubChem BioAssay data set” (2004).
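Method: 48-hour compound exposure of cells in 96-well plates, five concentrations, linear interpolation of endpoints. Abbreviation: GI50, concentration required for 50% inhibition of growth.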 Active and inactive are the calls of the source. Rule as the data show it: active = GI50 up to about 1.1 µM and inactive = higher.

Tests used:
Experiment in all cases: DTP human tumour cell line panel, 48 h
[1] = system: 786-0
[2] = system: A498
[3] = system: A549
[4] = system: ACHN
[5] = system: BT-549
[6] = system: CAKI-1
[7] = system: CCRF-CEM
[8] = system: COLO 205
[9] = system: DU-145
[10] = system: EKVX
[11] = system: HCC 2998
[12] = system: HCT-116
[13] = system: HCT-15
[14] = system: HL-60
[15] = system: HOP-62
[16] = system: HOP-92
[17] = system: HT-29
[18] = system: Hs-578T
[19] = system: IGROV-1
[20] = system: K562
[21] = system: KM12
[22] = system: LOX IMVI
[23] = system: M14
[24] = system: MCF7
[25] = system: MDA-MB-231
[26] = system: MDA-MB-435
[27] = system: MDA-N
[28] = system: Malme-3M
[29] = system: NCI-H226
[30] = system: NCI-H23
[31] = system: NCI-H460
[32] = system: NCI-H522
[33] = system: NCI/ADR-RES
[34] = system: OVCAR-3
[35] = system: OVCAR-4
[36] = system: OVCAR-5
[37] = system: OVCAR-8
[38] = system: PC-3
[39] = system: RXF 393
[40] = system: SF-268
[41] = system: SF-295
[42] = system: SF-539
[43] = system: SK-MEL-28
[44] = system: SK-MEL-2
[45] = system: SK-MEL-5
[46] = system: SK-OV-3
[47] = system: SN12C
[48] = system: SNB-19
[49] = system: SNB-75
[50] = system: SW-620
[51] = system: T47D
[52] = system: TK-10
[53] = system: U-251
[54] = system: UACC-257
[55] = system: UACC-62
[56] = system: UO-31
[57] = system: MOLT-4
[58] = system: RPMI-8226

O=C(CCC(=O)OCC1OC(O)(CC2OC(CO)C(O)C(O)C2O)C(O)C1O)OCc1ccccc1 (configuration not stated)
GI50 [1]: > 100 µM (inactive) | GI50 [2]: > 100 µM (inactive) | GI50 [3]: > 100 µM (inactive) | GI50 [4]: > 100 µM (inactive) | GI50 [5]: > 100 µM (inactive) | GI50 [6]: > 100 µM (inactive) | GI50 [7]: 67.1 µM (inactive) | GI50 [8]: > 100 µM (inactive) | GI50 [9]: > 100 µM (inactive) | GI50 [10]: > 100 µM (inactive) | GI50 [11]: > 100 µM (inactive) | GI50 [12]: > 100 µM (inactive) | GI50 [13]: > 100 µM | GI50 [14]: > 100 µM (inactive) | GI50 [15]: > 100 µM (inactive) | GI50 [16]: > 100 µM (inactive) | GI50 [17]: > 100 µM (inactive) | GI50 [18]: > 100 µM (inactive) | GI50 [19]: > 100 µM (inactive) | GI50 [20]: > 100 µM (inactive) | GI50 [21]: > 100 µM (inactive) | GI50 [22]: > 100 µM (inactive) | GI50 [23]: > 100 µM (inactive) | GI50 [24]: > 100 µM (inactive) | GI50 [25]: > 100 µM (inactive) | GI50 [26]: > 100 µM (inactive) | GI50 [27]: > 100 µM (inactive) | GI50 [28]: > 100 µM (inactive) | GI50 [29]: > 100 µM (inactive) | GI50 [30]: > 100 µM (inactive) | GI50 [31]: > 100 µM (inactive) | GI50 [32]: > 100 µM (inactive) | GI50 [33]: > 100 µM (inactive) | GI50 [34]: > 100 µM (inactive) | GI50 [35]: > 100 µM (inactive) | GI50 [36]: > 100 µM (inactive) | GI50 [37]: > 100 µM (inactive) | GI50 [38]: > 100 µM (inactive) | GI50 [39]: > 100 µM (inactive) | GI50 [40]: > 100 µM (inactive) | GI50 [41]: > 100 µM (inactive) | GI50 [42]: > 100 µM (inactive) | GI50 [43]: > 100 µM (inactive) | GI50 [44]: > 100 µM (inactive) | GI50 [45]: > 100 µM (inactive) | GI50 [46]: > 100 µM (inactive) | GI50 [47]: > 100 µM (inactive) | GI50 [48]: > 100 µM (inactive) | GI50 [49]: > 100 µM (inactive) | GI50 [50]: > 100 µM (inactive) | GI50 [51]: > 100 µM (inactive) | GI50 [52]: > 100 µM (inactive) | GI50 [53]: > 100 µM (inactive) | GI50 [54]: > 100 µM (inactive) | GI50 [55]: > 100 µM (inactive) | GI50 [56]: > 100 µM (inactive)

COc1cc(/C=C2\C(=O)N(c3ccc(Cl)cc3)C(c3ccccc3)S2(=O)=O)cc(OC)c1OC (configuration not stated)
GI50 [1]: 39.4 µM (inactive) | GI50 [2]: > 45.5 µM (inactive) | GI50 [3]: 17.8 µM (inactive) | GI50 [5]: 14.3 µM (inactive) | GI50 [6]: 38.5 µM (inactive) | GI50 [7]: 8.53 µM (inactive) | GI50 [8]: 1.99 µM (inactive) | GI50 [9]: > 100 µM (inactive) | GI50 [10]: 26.8 µM (inactive) | GI50 [11]: 41.4 µM (inactive) | GI50 [12]: 3.37 µM (inactive) | GI50 [13]: 1.03 µM | GI50 [14]: 5.04 µM (inactive) | GI50 [15]: > 34.5 µM (inactive) | GI50 [16]: 51.9 µM (inactive) | GI50 [17]: 42.5 µM (inactive) | GI50 [18]: > 100 µM (inactive) | GI50 [20]: 0.726 µM (active) | GI50 [21]: 3.72 µM (inactive) | GI50 [22]: 4.55 µM (inactive) | GI50 [23]: 0.522 µM (active) | GI50 [24]: 4.61 µM (inactive) | GI50 [25]: > 69.3 µM (inactive) | GI50 [26]: 0.394 µM (active) | GI50 [27]: 2.04 µM (inactive) | GI50 [57]: 26.9 µM (inactive) | GI50 [28]: 42.3 µM (inactive) | GI50 [29]: > 84.1 µM (inactive) | GI50 [30]: 6.4 µM (inactive) | GI50 [31]: 3.95 µM (inactive) | GI50 [32]: 14.5 µM (inactive) | GI50 [33]: 12.4 µM (inactive) | GI50 [34]: 25.4 µM (inactive) | GI50 [35]: 8.89 µM (inactive) | GI50 [36]: 9.04 µM (inactive) | GI50 [37]: 93.1 µM (inactive) | GI50 [38]: 22.8 µM (inactive) | GI50 [58]: 7.46 µM (inactive) | GI50 [39]: 22.4 µM (inactive) | GI50 [40]: 31 µM (inactive) | GI50 [41]: 11.9 µM (inactive) | GI50 [42]: 57 µM (inactive) | GI50 [43]: > 54.3 µM (inactive) | GI50 [44]: 9.77 µM (inactive) | GI50 [45]: 1.05 µM (active) | GI50 [46]: 14 µM (inactive) | GI50 [47]: > 25.8 µM (inactive) | GI50 [48]: 20 µM (inactive) | GI50 [49]: 53.8 µM (inactive) | GI50 [50]: 32.2 µM (inactive) | GI50 [51]: 2.77 µM (inactive) | GI50 [52]: > 63 µM (inactive) | GI50 [53]: 29.1 µM (inactive) | GI50 [54]: 21.4 µM (inactive) | GI50 [55]: 2.19 µM (inactive) | GI50 [56]: 3.48 µM (inactive)
